{"source": "patent US8586092B2", "about": "(Xi'an Libang Pharmaceutical Technology Co., Ltd., priority 2009, dated 2013)", "origin": "cited, not measured here", "key": {"rat": {"system": "rat", "conditions": "orally administered to rat"}, "mouse": {"system": "mouse", "conditions": "in vivo, sc"}}, "data": [{"smiles": "C[C@]12CC[C@@H]3c4ccc(O)cc4C[C@@H](CCCCCCCCC[S+]([O-])CCCC(F)(F)C(F)(F)F)[C@H]3[C@@H]1CC[C@@H]2O", "note": "(stereo partly drawn) [Fulvestrant, 7-alpha-[9-(4,4,5,5,5-pentafluoropentylsulphinyl)nonyl]estra-1,3,5-(10)-triene-3,17-beta-diol]", "values": [{"measurement": "aqueous solubility", "result": "around 10 ng/ml"}]}, {"smiles": "O=C(OCc1ccccc1)c1ccccc1", "note": "[Benzyl benzoate]", "values": [{"measurement": "LD50", "setting": "rat", "result": 500, "unit": "mg/kg"}]}, {"smiles": "CCO", "note": "[ethanol]", "values": [{"measurement": "LD50", "setting": "mouse", "result": 8285, "unit": "mg/kg"}]}]}
